Experimental data as given in patent publication US5786355A, “4,6-diarylpyrimidine derivatives and salts thereof” (Taiho Pharmaceutical Co., Ltd., priority 1995, dated 1998).

Tested on: not given
Assay: not given
Conditions: J. INDIAN CHEM. SOC., 70, 266-267(1993); cited from earlier work

SMILES	antibacterial activity
COc1ccc(-c2cc(-c3ccc(OC)c(OC)c3)nc(N)n2)c(OC)c1 [2-amino-4-(2,4-dimethoxyphenyl)-6-(3,4-dimethoxyphenyl)pyrimidine]	no antibacterial activity

Tested on: HUVEC (human umbilical vein endothelial cell)
Assay: HUVEC growth inhibition (3H-thymidine uptake)
Type: cell-based
Conditions: 3000 cells per well, RPMI-1640 with ECGS, EGF and 2% serum, 48 hours + 17 hours with 3H-thymidine, control as 100%, read-out: IC50 (concentration showing a 50% growth inhibitory activity)
Protocol: To a 96-well microplate, HUVEC (human umbilical vein endothelial cell; product of Kurabo Industries Ltd.) was added in an amount of 3000 cells per well, followed by culturing in 200 μl of RPMI-1640 medium (Nissui Pharmaceutical Co., Ltd.) containing 10 μg/ml of ECGS (Endothelial Cell Growth Supplement; Collaborative Co., Ltd.), 3 ng/ml of EGF ([…]; product of Genzyme Co., Ltd.) and 2% fatal calf serum at 37° C. for 48 hours using 5% CO2. To each well, 0.1 μCi (3.7 KBq) of ^3 H-Tymidine was added, followed by culturing for 17 hours. Then, the cells were collected on a glass filter and washed with 5% trichloroacetic acid and ethanol. The radioactivity taken in was measured by a β-plate (Pharmacia Laboratories, Inc.). The concentration showing a 50% growth inhibitory activity (IC50) was calculated with a control as 100%.

SMILES	IC50 [nM]
COc1cc(OC)c(-c2cc(-c3cc(OC)c(OC)cc3OC)nc(N(C)C)n2)cc1OC [Compound 2]	220
COc1cc(OC)c(-c2cc(-c3cc(OC)c(OC)cc3OC)nc(N)n2)cc1OC [Compound 3]	250
COc1cc(OC)c(-c2cc(-c3ccc(OCCN(C)C)cc3)nc(N(C)C)n2)cc1OC [Compound 8]	1100
CCN(CC)c1nc(-c2cc(OC)c(OC)cc2OC)cc(-c2cc(OC)c(OC)cc2OC)n1 [Compound 9]	360
CCN(CC)c1nc(-c2ccc(OC)cc2OC)cc(-c2cc(OC)c(OC)cc2OC)n1 [Compound 17]	530
CCN(CC)c1nc(-c2cc(OC)c(OC)c(OC)c2)cc(-c2cc(OC)c(OC)cc2OC)n1 [Compound 20, 2-diethylamino-4-(3,4,5-trimethoxyphenyl)-6-(2,4,5-trimethoxyphenyl)pyrimidine]	530
COc1cc(OC)c(-c2cc(-c3cc(OC)c(O)c(OC)c3)nc(N(C)C)n2)cc1OC [Compound 24]	210
COc1cc(NS(C)(=O)=O)c(-c2cc(-c3cc(OC)c(OC)cc3OC)nc(N(C)C)n2)cc1OC [Compound 27]	68
COc1cc(OC)c(-c2cc(-c3nccs3)nc(N(C)C)n2)cc1OC [Compound 30]	700
COc1cc(OC)c(-c2cc(-c3cc(OC)c(OC)cc3OC)nc(NS(C)(=O)=O)n2)cc1OC [Compound 31]	520
CCN(CC)c1nc(-c2ccc(OCCN3CCCCC3)cc2)cc(-c2cc(OC)c(OC)cc2OC)n1 [Compound 41]	1700
CCN(CC)c1nc(-c2ccc(OP(=O)(O)O)cc2)cc(-c2cc(OC)c(OC)cc2OC)n1 [Compound 43]	330
